Assays:
SK-OV-3 cells = assay: Growth inhibition of SK-OV-3 cells, MTT assay after 72 hr; assay type: cell-based, human; conditions: conjugates delivered in C-m-HDLs, SEQ ID NO: 35 peptide, solvent lyophilization, FIG. 12A
Method: In this Example, the mole portions of components in the C-m-HDLs prepared by solvent lyophilization were POPC: egg SM: peptide: conjugate 5.6:2.4:2:1. 20 mM stock solutions of POPC and of egg SM were prepared in tert-butyl alcohol: water (8:2 v/v). […] Conjugates 20 and 30 were separately dissolved in tert-butyl alcohol: water (95:5) to a final concentration of 10 mM.
For C-m-HDL preparation, 2.8 mL of 20 mM POPC, 1.2 mL of 20 mM egg SM, 2 mL of 10 mM peptide, 1 mL of 10 mM conjugate, and 0.3 mL acetic acid were combined in a 20 mL glass vial. The combined solution was frozen at ≥−70° C. for ≥1 hr. The frozen vial was placed in the chamber of a lyophilizer set at a shelf temperature of −20° C. A vacuum between 100 to 150 mTorr was applied for ≥20 hr. The shelf temperature was raised to −10° C. and the vacuum was continued for ≥15 hr. The shelf temperature was then raised to 20° C. and the vacuum continued for 24 hr. The dried cake was dissolved in PBS to obtain C-m-HDLs. The uniformity of the C-m-HDLs was evaluated by SEC (Acclaim™ SEC-1000, 300 mm×4.6 mm column, 0.3 mL/min PBS mobile phase, 210 nm and 280 nm UV detection) and by dynamic light scattering. The phospholipid content was established with a commercially available, enzyme-based, colorimetric assay kit. Peptide and conjugate content were established by HPLC.
Two C-m-HDLs were prepared as above, containing either Conjugate 20 or Conjugate 30 were then tested for their growth inhibition activity against SK-OV-3 cells (ATCC). SK-OV-3 cells were grown in McCoy's-5A media supplemented with 10% fetal bovine serum and maintained in a 37° C. incubator under a 5% CO2 atmosphere. To assess growth inhibition, the growth medium of cells grown in 96-well plates was supplemented with various concentrations of C-m-HDL (cmpd 20), C-m-HDL (compd 30) or paclitaxel from a DMSO stock solution. The 96-well plates were incubated for 72 hr. The relative amount of live cells in each of the wells after 72 hr was determined with the MTT assay. […]

[1] = test system: female Sprague-Dawley rats; assay: Adrenal gland functionality after dosing: plasma corticosterone after ACTH challenge; assay type: in vivo, rat; conditions: paclitaxel in Cremophor EL/ethanol, 4 mg/kg intraperitoneally Days 1, 4, 7; FIG. 10
Method: A paclitaxel stock solution was prepared by dissolving paclitaxel in 1:1 (v/v) Cremophor EL/ethanol (95%) to a final paclitaxel concentration of […] (C-E paclitaxel solution). Next, a paclitaxel solution suitable for dosing was prepared by combining one volume of the C-E paclitaxel solution with 3 volumes of 0.9 weight % NaCl. This solution is designated as “Control”.
C-m-HDL (cmpd 20) was prepared as per Example 12.
Eighteen (18) female Sprague-Dawley rats were randomly assigned to 3 groups of 6 animals each. All animals were lightly anesthetized using isoflurane and dosed intraperitoneally on Days 1, 4, and 7 with paclitaxel at 4 mg/kg in a dose volume of 1.5 mL/kg, or intravenously with C-m-HDL (cmpd 20) at 4 mg/kg or vehicle (saline) via the tail vein using a dose volume of 1.5 mL/kg. Group I received saline, Group 2 received paclitaxel, and Group 3 received C-m-HDL (cmpd 20). On Day 11, rats in each group were lightly anesthetized using isoflurane within their home cage to minimize potential stress responses. Blood (˜200 μL) was collected into K3EDTA tubes prior to ACTH challenge (baseline). Rats were then challenged with a single intraperitoneal injection of ACTH (ACTH 1-24, Sigma-Aldrich A0298-1922) in normal saline at […] in a dose volume of 2 mL/kg. […] Plasma corticosterone content was determined with a commercially available ELISA kit.

## CC(=O)O[C@H]1C(=O)[C@@]2(C)[C@H]([C@H](OC(=O)c3ccccc3)[C@]3(O)C[C@H](OC(=O)[C@H](OC(=O)Oc4cc(C)c5c(c4)CC[C@@](C)(CC/C=C(\C)CC/C=C(\C)CCC=C(C)C)O5)[C@@H](NC(=O)c4ccccc4)c4ccccc4)C(C)=C1C3(C)C)[C@]1(OC(C)=O)CO[C@@H]1C[C@@H]2O [Conjugate 20, paclitaxel-delta-tocotrienol conjugate]
SK-OV-3 cells
  SK-OV-3 growth inhibition activity, delta-tocotrienol versus delta-tocopherol anchor: equivalent results
SK-OV-3 cells; listed as paclitaxel-delta-tocotrienol
  SK-OV-3 growth inhibition activity, delta-tocotrienol versus delta-tocopherol anchor: essentially equivalent

## Paclitaxel-δ-tocopherol conjugate with a cleavable carbonate bond [No. 82]
SK-OV-3 cells; listed as paclitaxel-delta-tocopherol
  SK-OV-3 growth inhibition activity, delta-tocotrienol versus delta-tocopherol anchor: essentially equivalent
SK-OV-3 cells; listed as δ-tocopherol-paclitaxel
  SK-OV-3 growth inhibition activity, delta-tocotrienol versus delta-tocopherol anchor: equivalent results

## CC(=O)O[C@H]1C(=O)[C@@]2(C)[C@H]([C@H](OC(=O)c3ccccc3)[C@]3(O)C[C@H](OC(=O)[C@H](O)[C@@H](NC(=O)c4ccccc4)c4ccccc4)C(C)=C1C3(C)C)[C@]1(OC(C)=O)CO[C@@H]1C[C@@H]2O [paclitaxel]
[1]
  adrenal toxicity (plasma corticosterone after ACTH challenge): lack of adrenal toxicity

— US20250345453A1, “CHEMOTHERAPEUTIC MICELLULAR NANOPARTICLES” (Peptinovo Biopharma Inc., priority 2024, published 2025)
